Measurements as given in patent publication US20260109721A1, “IONIZABLE CATIONIC LIPIDS INCORPORATING SILICON: SYNTHESIS AND LNP FORMULATION” (priority 2023, published 2026).

System: HeLa cells
Assay: Transfection efficiency with Luciferase (SecNLuc) mRNA, Nano-Glo assay (Method A)
Format: cell-based
Details: Luc mRNA, 24 h, luminescence; for Transfection 10 ng mRNA: 10 ng mRNA/well; for Transfection 50 ng mRNA: 50 ng mRNA/well; for Transfection 100 ng mRNA: 100 ng mRNA/well
Protocol: The synthesized lipids were tested in term of in vitro transfection efficacy and toxicity on HeLa cells. In order to perform the mentioned biological tests, appropriate LNPs had to be formulated from the synthesized lipids. The formulation technique was different in Method A and B. The particle size, polydispersity index (PDI) and zeta potential of resulting LNPs were determined by means of Dynamic Light Scattering technique (DLS). Prior to biological testing the encapsulation efficiency (EE) of the loaded LNPs was determined by using RiboGreen RNA assay. In case of Method A Luc mRNA while in case of Method B GFP mRNA was transfected into the cells. In parallel with the transfection experiments, toxicity of the investigated LNPs was determined, in case of Method A resazurin assay while in case of Method B MTT assay was used. Additionally, the toxicity of the lipids was investigated on HepG2 cells and IC50 values were determined.
• 1. Prepare mRNA solution by adding 100 ng mRNA (SecNLuc, #P009024, RiboPro) to 5 μl Opti-MEM • multiply by number of wells, include different concentrations and add 10% extra • a standard set-up we use is 100 ng-50 ng-10 ng mRNA/well in triplicate, which would need […] mRNA (includes 10% extra)
• 2. (If applicable) Prepare different concentrations in Opti-MEM (for instance 100/50/10 ng). • 3. Add 10 μl to each well and mix carefully by pipetting. • 4. Mix by swirling the plate horizontally at modest speed. Reverse in direction 3 times. • 5. Incubate for 24 hours (incubator).
This protocol is applied to measure luciferase activity for secreted NanoLuc and is based on the protocol by Promega (Nano-Glo® Luciferase Assay System #N1110-1150). The protocol is designed for a 384-wells plate, but volumes can be changed accordingly for other plates.
• 1. Plate cells (HeLa) in 96-well plate, grow until 80% confluent and transfect with SecNanoLuc mRNA and incubate for the desired period (24 h). • 2. After incubation, the translated protein is accumulated in the medium. Transfer medium to a new plate or tubes. • 3. Transfer 12 μl of each sample to a black-walled, clear-bottom 384-well plate • Black-walled plates are important to prevent shine-through of luminescence from other wells; alternatively, multiple wells between samples can be left empty. • 4. Set-up plate reader • 5. Prepare the desired amount of Nano-Glo® Luciferase Assay Reagent by combining one volume of Nano-Glo® Luciferase Assay Substrate with 50 volumes of Nano-Glo® Luciferase Assay Buffer: • a. composition: 100 mM MES pH 6; 1 mM EDTA; […]; 150 mM KCl; 1 mM DTT; 35 mM Thiourea; • b. briefly spin tubes containing substrate in a microcentrifuge before use. • 6. Add and mix (by pipetting) 12 μl Nano-Glo® Luciferase Assay Reagent per well • Wait approximately 3 minutes before measuring luminescence. […] Measure luminescence in plate reader using standard protocol luciferase (this includes mixing sample in plate reader)

SMILES | Transfection 10 ng mRNA | Transfection 50 ng mRNA | Transfection 100 ng mRNA
CCCCC/C=C\C/C=C\CCCCCCCCOC(CCCCCCC/C=C\C/C=C\CCCCC)O[Si](C)(C)OCCCCCCN1CCCCC1CO (stereo not drawn) [Example 64, (1-((20Z,23Z)-10-((8Z,11Z)-heptadeca-8,11-dien-1-yl)-8,8-dimethyl-7,9,11-trioxa-8-silanonacosa-20,23-dien-1-yl)piperidin-2-yl)methanol] | 3.40E+05 | 1.89E+06 | 3.78E+06
CCCCC/C=C\C/C=C\CCCCCCCCOC(CCCCCN(C)CC(O)CO)O[Si](C)(C)OCCCCCCCC/C=C\C/C=C\CCCCC (stereo not drawn) [Example 66, (22Z,25Z)-4,12,12-trimethyl-10-(((9Z,12Z)-octadeca-9,12-dien-1-yl)oxy)-11,13-dioxa-4-aza-12-silahentriaconta-22,25-diene-1,2-diol] | 1.06E+05 | 1.14E+06 | 3.31E+06
C#CCN(C)CCCCCCO[Si](C)(C)OC(CCCCCCC/C=C\C/C=C\CCCCC)OCCCCCCCC/C=C\C/C=C\CCCCC (stereo not drawn) [Example 67, (20Z,23Z)-10-((8Z,11Z)-heptadeca-8,11-dien-1-yl)-N,8,8-trimethyl-N-(prop-2-yn-1-yl)-7,9,11-trioxa-8-silanonacosa-20,23-dien-1-amine] | 2.42E+04 | 4.02E+05 | 1.79E+06
CCCCC/C=C\C/C=C\CCCCCCCCOC(CCCCCCC/C=C\C/C=C\CCCCC)O[Si](C)(C)OCCCCCCN(C)Cc1cn(C2[C@H](O)O[C@H](CO)[C@@H](O)[C@@H]2O)nn1 (stereo partly drawn) [Example 68, (4R,5S,6R)-3-(4-((22Z,25Z)-12-((8Z,11Z)-heptadeca-8,11-dien-1-yl)-2,10,10-trimethyl-9,11,13-trioxa-2-aza-10-silahentriaconta-22,25-dien-1-yl)-1H-1,2,3-triazol-1-yl)-6-(hydroxymethyl)tetrahydro-2H-pyran-2,4,5-triol] | 2.74E+02 | 1.30E+03 | 7.84E+03
CCCCC/C=C\C/C=C\CCCCCCCCOC(CCCCCCC/C=C\C/C=C\CCCCC)O[Si](C)(C)OCCCCCCN1CCN(CCCCCCO[Si](C)(C)OC(CCCCCCC/C=C\C/C=C\CCCCC)OCCCCCCCC/C=C\C/C=C\CCCCC)CC1 (stereo not drawn) [Example 70, 1,4-bis((20Z,23Z)-10-((8Z,11Z)-heptadeca-8,11-dien-1-yl)-8,8-dimethyl-7,9,11-trioxa-8-silanonacosa-20,23-dien-1-yl)piperazine] | 6.46E+02 | 5.40E+03 | 2.07E+04
CCCCC/C=C\C/C=C\CCCCCCCCOC(CCCCCCC/C=C\C/C=C\CCCCC)O[Si](C)(C)OCCCCCCN(CCO)CCN(CCO)CCCCCCO[Si](C)(C)OC(CCCCCCC/C=C\C/C=C\CCCCC)OCCCCCCCC/C=C\C/C=C\CCCCC (stereo not drawn) [Example 71, (26Z,29Z)-16-((8Z,11Z)-heptadeca-8,11-dien-1-yl)-3-((20Z,23Z)-10-((8Z,11Z)-heptadeca-8,11-dien-1-yl)-8,8-dimethyl-7,9,11-trioxa-8-silanonacosa-20,23-dien-1-yl)-6-(2-hydroxyethyl)-14,14-dimethyl-13,15,17-trioxa-3,6-diaza-14-silapentatriaconta-26,29-dien-1-ol] | 3.24E+04 | 9.78E+05 | 5.19E+06
CCCCCCCC/C=C\CCCCCCCC(OCC(CCCCCCCC)SCCCCC)O[Si](C)(C)OCCCCCCN(CCO)CCO (stereo not drawn) [Example 72, (Z)-13-(heptadec-8-en-1-yl)-3-(2-hydroxyethyl)-11,11-dimethyl-16-octyl-10,12,14-trioxa-17-thia-3-aza-11-siladocosan-1-ol] | 2.05E+03 | 8.79E+04 | 3.60E+05
